# Earlier results, collected in patent US20040266755A1, “Prodrugs of 1-(1-hydroxy-5-isoquinolinesulfonyl) homopiperazine” (Schering Aktiengesellschaft, priority 2003, published 2004).
# System: Rho-kinase
# Conditions: compared with fasudil; Shimokawa et al. (1999) Cardiovas. Res. 43:1138-1141
smiles,measurement,value
"O=S(=O)(c1cccc2c(O)nccc12)N1CCCNCC1 [Hydroxyfasudil, 1-(1-hydroxy-5-isoquinolinesulfonyl) homopiperazine]",specificity of inhibitory effect on Rho-kinase,more specific inhibitory effect on Rho-kinase than fasudil
